# Test results taken from ChEMBL document CHEMBL1201862, “PubChem BioAssay data set” (2004).
#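 Values below derive from 48-hour exposures of cells grown in 96-well plates, with endpoints linearly interpolated between the two concentrations bracketing the appropriate inhibition level. Here, GI50 denotes the concentration required for 50% inhibition of growth.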 Activity calls are given as the source filed them. Cut-off read from the data, not from the text of the source: active = GI50 up to about 1.1 µM and inactive = higher.
# Columns and labels:
# Assay in all cases: NCI tumour cell line growth inhibition, 48 h
# [1] = tested on: DMS-114
# [2] = tested on: KM-20L2
# [3] = tested on: RXF 631
# [4] = tested on: LXFL 529
# [5] = tested on: HOP-18
# [6] = tested on: XF498
# [7] = tested on: SNB-78
# [8] = tested on: DLD-1
# [9] = tested on: M19-MEL
SMILES,GI50 [1],GI50 [2],GI50 [3],GI50 [4],GI50 [5],GI50 [6],GI50 [7],GI50 [8],GI50 [9]
O=C(O)CCC(NC(=O)c1ccccc1)C(=O)O (centres undefined),> 100 µM (inactive),> 100 µM (inactive),> 100 µM (inactive),> 100 µM (inactive),> 100 µM (inactive),> 100 µM (inactive),> 100 µM (inactive),> 100 µM (inactive),
COc1ccccc1/C=C1\CCC(CNc2ccc(Cl)cc2)C1=O (centres undefined),4.08 µM (inactive),0.661 µM (active),,0.226 µM (active),16.5 µM (inactive),27.9 µM (inactive),19.5 µM (inactive),1.31 µM (inactive),1.61 µM (inactive)
COc1ccc(C23c4ccc(OC)cc4CC2(c2ccc([N+](=O)[O-])cc2)Cc2cc(OC)ccc23)cc1 (centres undefined),> 50 µM (inactive),> 15.7 µM (inactive),,> 54.5 µM (inactive),1.17 µM (inactive),> 100 µM (inactive),> 100 µM (inactive),> 22.8 µM (inactive),> 35.2 µM (inactive)
N#Cc1c([N+](=O)[O-])cc(C(F)(F)F)cc1[N+](=O)[O-],1.88 µM (inactive),17.1 µM (inactive),9.79 µM (inactive),2.07 µM (inactive),11.2 µM (inactive),1.83 µM (inactive),2.07 µM (inactive),3.87 µM (inactive),2.54 µM (inactive)
COC(=O)C(CC1=C(O)Nc2ccccc2N1)/C(=N/NC(N)=O)C(=O)Nc1ccccc1C (centres undefined),12.9 µM (inactive),> 100 µM (inactive),,69.8 µM (inactive),> 100 µM (inactive),,> 100 µM (inactive),41.4 µM (inactive),60.1 µM (inactive)
Cn1c2cccc3nnc4cccc(c4c32)n1C,> 100 µM (inactive),> 100 µM (inactive),> 100 µM (inactive),> 100 µM (inactive),,> 100 µM (inactive),> 100 µM (inactive),> 100 µM (inactive),> 100 µM (inactive)
CC(=O)Oc1cc(OC(C)=O)c2cc3c(cc2c1OC(C)=O)C(=O)C1(CCCC1)C3=O,16.5 µM (inactive),22.1 µM (inactive),,,22.8 µM (inactive),16.4 µM (inactive),22.9 µM (inactive),20 µM (inactive),17.2 µM (inactive)
COc1ccc(N2C(=O)C(N3C(=O)C=CC3=O)C2C=O)cc1 (centres undefined),,> 100 µM (inactive),,> 100 µM (inactive),> 100 µM (inactive),,> 100 µM (inactive),> 100 µM (inactive),> 100 µM (inactive)
CN(C)CCC(/C=C/c1ccccc1)=N\Nc1ccccc1,2.07 µM (inactive),0.241 µM (active),,0.185 µM (active),4.5 µM (inactive),,3.63 µM (inactive),0.596 µM (active),1.57 µM (inactive)
CCOC(=O)c1cnc2c(ccc3ncccc32)c1NCCCN(CC)CC,,34.2 µM (inactive),,> 100 µM (inactive),> 100 µM (inactive),> 100 µM (inactive),> 100 µM (inactive),> 100 µM (inactive),> 100 µM (inactive)
CCCC1C(=O)C(CC)Cc2c(OC)ccc(OC)c21 (centres undefined),,,> 100 µM (inactive),> 100 µM (inactive),,> 100 µM (inactive),> 100 µM (inactive),> 100 µM (inactive),> 100 µM (inactive)
O=c1c2ccc3cccc4c(=O)cc(c5ccccc15)-c2c34,32 µM (inactive),> 100 µM (inactive),,29.6 µM (inactive),22.7 µM (inactive),,,> 100 µM (inactive),20.3 µM (inactive)
Cc1ccc(C)c(N2C/C(=N\NC(=O)CC#N)C(c3nc4ccccc4s3)C(=O)C2=O)c1 (centres undefined),> 100 µM (inactive),> 100 µM (inactive),,> 100 µM (inactive),> 100 µM (inactive),> 100 µM (inactive),> 100 µM (inactive),> 100 µM (inactive),> 100 µM (inactive)
O=C1c2ccccc2C(=O)N1CCn1ccc(NC(c2ccccc2)(c2ccccc2)c2ccccc2)nc1=O,18.4 µM (inactive),14.1 µM (inactive),15 µM (inactive),28.4 µM (inactive),24.2 µM (inactive),13.9 µM (inactive),30.8 µM (inactive),19.1 µM (inactive),16.8 µM (inactive)
CCN(CC)CC(=O)N1CCc2c([nH]c3ccccc23)C1c1cccnc1 (centres undefined),> 100 µM (inactive),> 100 µM (inactive),> 100 µM (inactive),> 100 µM (inactive),> 100 µM (inactive),> 100 µM (inactive),> 100 µM (inactive),> 100 µM (inactive),> 100 µM (inactive)
COc1nc(NC2OC(COC(C)=O)C(OC(C)=O)C(OC(C)=O)C2OC(C)=O)c2c(OC(C)=O)cc(=O)oc2n1 (centres undefined),> 100 µM (inactive),> 100 µM (inactive),,> 100 µM (inactive),> 100 µM (inactive),> 100 µM (inactive),> 100 µM (inactive),> 100 µM (inactive),> 100 µM (inactive)
CC/C(C)=C1\CCC(CN2CCOCC2)C1=O (centres undefined),5.26 µM (inactive),19.2 µM (inactive),,11.2 µM (inactive),19 µM (inactive),19.1 µM (inactive),21.8 µM (inactive),11.9 µM (inactive),14.9 µM (inactive)
NC(=O)N/N=C/C(=C/Nc1ccccc1)[N+](=O)[O-],> 100 µM (inactive),> 100 µM (inactive),,> 100 µM (inactive),> 100 µM (inactive),> 100 µM (inactive),,> 100 µM (inactive),> 100 µM (inactive)
CN/C=C(\C(=O)c1ccc(OC)c(OC)c1)c1ccc(OC)cc1,18.6 µM (inactive),,14.3 µM (inactive),16 µM (inactive),< 0.01 µM (active),18.5 µM (inactive),,15.6 µM (inactive),17.1 µM (inactive)
OCCOc1ccc(-c2cc(-c3ccccn3)nc(-c3ccccn3)c2)cc1,0.0552 µM (active),< 0.0383 µM (active),0.465 µM (active),0.376 µM (active),0.166 µM (active),0.0387 µM (active),2.83 µM (inactive),,0.0962 µM (active)
O=C(NC1C2CC3CC(C2)CC1C3)c1ccncn1 (centres undefined),> 100 µM (inactive),> 100 µM (inactive),> 100 µM (inactive),> 100 µM (inactive),,,> 100 µM (inactive),> 100 µM (inactive),> 100 µM (inactive)
Cc1cccc(C)c1NC(=O)C1=NC(=S)NC(c2ccccc2)C1c1nc2ccccc2s1 (centres undefined),> 100 µM (inactive),> 100 µM (inactive),,> 100 µM (inactive),> 100 µM (inactive),> 100 µM (inactive),> 100 µM (inactive),> 100 µM (inactive),> 100 µM (inactive)
O=C(c1ccccc1)c1nc2ccc(Cl)cc2cc1C(Br)Br,1.79 µM (inactive),0.25 µM (active),,0.216 µM (active),0.344 µM (active),0.933 µM (active),,0.203 µM (active),0.418 µM (active)
N#CCc1cccc(CC#N)c1Br,> 100 µM (inactive),> 100 µM (inactive),,> 100 µM (inactive),,> 100 µM (inactive),> 100 µM (inactive),> 100 µM (inactive),
CCN(CC)CCCN1CCc2c([nH]c3ccccc23)C1c1cccnc1 (centres undefined),> 100 µM (inactive),> 100 µM (inactive),> 100 µM (inactive),> 100 µM (inactive),,5.22 µM (inactive),> 100 µM (inactive),> 100 µM (inactive),> 100 µM (inactive)
COc1cc([C@@H]2c3cc4c(cc3[C@@H](NCc3cccc(F)c3)C3COC(=O)[C@@H]32)OCO4)cc(OC)c1O (some centres undefined),6.11 µM (inactive),6.64 µM (inactive),,13.4 µM (inactive),> 65 µM (inactive),,15.3 µM (inactive),9.71 µM (inactive),
O=c1c2c(-c3ccccc3)c3ccccc3nc2cnn1-c1ccccc1,57.1 µM (inactive),> 100 µM (inactive),,> 100 µM (inactive),> 100 µM (inactive),,> 100 µM (inactive),,> 100 µM (inactive)
C[C@@H](CC(O)C1OC1(C)C)[C@@H]1CC[C@]2(C)C3=CCC4C(C)(C)C(O)CC[C@]4(C)C3CCC12C (some centres undefined),,15.4 µM (inactive),,12.3 µM (inactive),20 µM (inactive),20.8 µM (inactive),,16.6 µM (inactive),18.1 µM (inactive)
COc1cc(C[S+]2CCCC2)c(SC)cc1C[S+]1CCCC1,> 100 µM (inactive),> 100 µM (inactive),> 100 µM (inactive),> 100 µM (inactive),,74.5 µM (inactive),> 100 µM (inactive),> 100 µM (inactive),> 100 µM (inactive)
CC(=O)Oc1ccccc1 [ACETIC ACID PHENYL ESTER],> 100 µM (inactive),> 100 µM (inactive),> 100 µM (inactive),> 100 µM (inactive),,,,> 100 µM (inactive),> 100 µM (inactive)
